Results published in ChEMBL document CHEMBL4665906, “Novel Potassium Channel Inhibitors” (ACS Med Chem Lett, 2020).
pIC50: −log10 of the molar value.

Molecular target: Intermediate conductance calcium-activated potassium channel protein 4 (Homo sapiens, UniProt O15554)
Assay: Inhibition of Kca3.1 in human erythrocytes
Type: cell-based

Sequence of Intermediate conductance calcium-activated potassium channel protein 4 (O15554 whole entry): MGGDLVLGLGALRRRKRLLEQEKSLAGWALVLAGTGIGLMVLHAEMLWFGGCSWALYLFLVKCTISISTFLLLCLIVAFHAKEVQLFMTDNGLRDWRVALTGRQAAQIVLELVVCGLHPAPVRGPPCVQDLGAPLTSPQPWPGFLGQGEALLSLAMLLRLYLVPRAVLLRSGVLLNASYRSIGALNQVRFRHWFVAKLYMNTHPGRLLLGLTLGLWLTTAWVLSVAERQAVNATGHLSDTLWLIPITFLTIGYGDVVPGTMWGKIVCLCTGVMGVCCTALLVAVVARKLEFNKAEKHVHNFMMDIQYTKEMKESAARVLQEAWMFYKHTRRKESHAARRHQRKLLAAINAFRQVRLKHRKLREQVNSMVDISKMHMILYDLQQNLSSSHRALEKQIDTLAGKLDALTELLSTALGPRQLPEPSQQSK

Row | pIC50 | Compound
1 | 8.09 | COC(=O)N(C[C@H]1CCCN1C)C1(c2ccc(F)c(C(F)(F)F)c2)CC1
2 | 8.07 | COC(=O)N(CC(C)(C)N)C1(c2ccc(F)c(C(F)(F)F)c2)CC1
3 | 8.06 | COC(=O)N(C[C@@H]1CCCN1)C1(c2ccc(F)c(OC(F)(F)F)c2)CC1
